Assay results as given in ChEMBL document CHEMBL1201862, “PubChem BioAssay data set” (2004).
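In this assay, cells in 96-well plates receive the compound at five concentrations for 48 hours. Endpoints are linearly interpolated between the surrounding concentrations. GI50 = concentration required for 50% inhibition of growth.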 The source made the active and inactive calls. Rule as the data show it: active = GI50 up to about 1.1 µM and inactive = higher.

Legend:
Assay in all cases: DTP human tumour cell line panel, 48 h
CCRF-CEM = system: CCRF-CEM
EKVX = system: EKVX
HCT-116 = system: HCT-116
HCT-15 = system: HCT-15
HOP-92 = system: HOP-92
K562 = system: K562
LOX IMVI = system: LOX IMVI
MDA-MB-435 = system: MDA-MB-435
Malme-3M = system: Malme-3M
NCI-H23 = system: NCI-H23
NCI/ADR-RES = system: NCI/ADR-RES
OVCAR-5 = system: OVCAR-5
PC-3 = system: PC-3
RXF 393 = system: RXF 393
SF-295 = system: SF-295
SF-539 = system: SF-539
SK-MEL-2 = system: SK-MEL-2
SNB-19 = system: SNB-19
SR = system: SR
UACC-257 = system: UACC-257

SMILES | GI50 (CCRF-CEM) | GI50 (EKVX) | GI50 (HCT-116) | GI50 (HCT-15) | GI50 (HOP-92) | GI50 (K562) | GI50 (LOX IMVI) | GI50 (MDA-MB-435) | GI50 (Malme-3M) | GI50 (NCI-H23) | GI50 (NCI/ADR-RES) | GI50 (OVCAR-5) | GI50 (PC-3) | GI50 (RXF 393) | GI50 (SF-295) | GI50 (SF-539) | GI50 (SK-MEL-2) | GI50 (SNB-19) | GI50 (SR) | GI50 (UACC-257)
CCCCCOC(=O)C(=O)Nc1[nH]nnc1C(N)=O | > 100 µM (inactive) | > 100 µM (inactive) | > 100 µM (inactive) | > 100 µM | > 100 µM (inactive) | > 100 µM (inactive) | > 100 µM (inactive) | > 100 µM (inactive) | > 100 µM (inactive) | > 100 µM (inactive) | > 100 µM (inactive) | > 100 µM (inactive) | > 100 µM (inactive) | > 100 µM (inactive) | > 100 µM (inactive) | > 100 µM (inactive) | > 100 µM (inactive) | > 100 µM (inactive) | > 100 µM (inactive) | > 100 µM (inactive)
COc1ccc(C2c3cc4c(cc3OC(NNC(N)=O)C2C)OCO4)cc1 (stereo not given) | 2.95 µM (inactive) | 21.5 µM (inactive) | 4.7 µM (inactive) | 3.94 µM | 16.5 µM (inactive) | 2.86 µM (inactive) | 4.39 µM (inactive) | 2.14 µM (inactive) | 6.67 µM (inactive) | 14.6 µM (inactive) | 7.5 µM (inactive) | 26.6 µM (inactive) | 4.69 µM (inactive) | 6.92 µM (inactive) | 3.58 µM (inactive) | 1.16 µM (inactive) | 10.8 µM (inactive) | 13.7 µM (inactive) | 1.9 µM (inactive) | 10.2 µM (inactive)
O=C1c2ccccc2C(=O)c2c1ccc1conc21 | 1.04 µM (active) | 2.08 µM (inactive) | 1.52 µM (inactive) | 2.75 µM | 1.07 µM (active) | 1.85 µM (inactive) | 0.469 µM (active) | 0.605 µM (active) | 2.48 µM (inactive) | 1.36 µM (inactive) | 0.649 µM (active) | 3 µM (inactive) | 1.48 µM (inactive) | 3.08 µM (inactive) | 2.65 µM (inactive) | 1.95 µM (inactive) | 3.52 µM (inactive) | 5.48 µM (inactive) | 1.36 µM (inactive) | 1.98 µM (inactive)
O=S(=O)(CCCCl)SCCCCl | 9.1 µM (inactive) | > 100 µM (inactive) | 20.9 µM (inactive) | 23.3 µM | 25 µM (inactive) | 7.5 µM (inactive) | 19.2 µM (inactive) | 25.8 µM (inactive) | 33.6 µM (inactive) | 45.1 µM (inactive) | 31.9 µM (inactive) | > 64 µM (inactive) | 30.1 µM (inactive) | 30.3 µM (inactive) | > 64.9 µM (inactive) | 19.4 µM (inactive) | 44.8 µM (inactive) | > 95.1 µM (inactive) | 10.4 µM (inactive) | 45.9 µM (inactive)
